Assay results from patent publication US5227384A, “5-substituted [4,5-c] imidazopyridines and pharmaceutical use thereof” (G. D. Searle & Co., priority 1991, dated 1993).

Assays:
[1] = test system: rabbit platelets; assay: PAF-induced platelet secretion ([^3 H]serotonin); type: cell-based; details: Oryctolagus cuniculus, washed [^3 H]serotonin-labeled rabbit platelets, 60 sec after PAF, IC50 by inspection of dose-response curves
Protocol: (§1) PAF-induced platelet aggregation and secretion: Washed, [^3 H]serotonin-labeled rabbit platelets were prepared as previously described in COX, C. P., J. LINDEN and S. I. SAID: VIP elevates platelet cyclic AMP (cAMP) levels and inhibits in vitro platelet activation induced by platelet-activating factor (PAF). Peptides 5:25-28, 1984, and maintained in an atmosphere of 5% CO2 at 37° C. until used in the bioassay. […] Aggregation was continuously monitored on a strip-chart recorder and recorded as the height of the tracing at 60 sec after the addition of PAF. Secretion of [^3 H]serotonin was measured in a sample of the platelet suspension removed at 60 sec after the addition of PAF. The percent inhibition of aggregation and secretion was calculated by comparing antagonist-treated platelets with the appropriate vehicle-treated control platelets. Each combination of antagonist and PAF was repeated 12-15 times, using several different platelet preparations. IC50 values were determined by inspection of the dose-response curves.

[2] = test system: rabbit platelets; assay: PAF-induced platelet aggregation; type: cell-based; details: Oryctolagus cuniculus, washed rabbit platelets, 60 sec after PAF, IC50 by inspection of dose-response curves
Protocol: as §1

[3] = molecular target: PAF receptor (Human Platelet Membrane Receptors) (Homo sapiens, UniProt P25105)
Chain of PAF receptor (Human Platelet Membrane Receptors) (P25105 whole entry): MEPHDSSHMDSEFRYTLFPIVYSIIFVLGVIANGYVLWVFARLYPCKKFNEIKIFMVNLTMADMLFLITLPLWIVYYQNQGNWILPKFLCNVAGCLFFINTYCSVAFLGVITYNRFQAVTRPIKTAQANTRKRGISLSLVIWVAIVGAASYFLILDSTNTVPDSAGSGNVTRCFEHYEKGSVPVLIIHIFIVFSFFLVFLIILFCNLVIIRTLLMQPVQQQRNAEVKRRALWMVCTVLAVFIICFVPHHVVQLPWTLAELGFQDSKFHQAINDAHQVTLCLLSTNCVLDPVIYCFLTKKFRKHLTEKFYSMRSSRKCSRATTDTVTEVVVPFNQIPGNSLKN

Row | IC50 ([1]; 1 min) | IC50 ([2]; 1 min) | IC50 [3] | IC50 [1] | IC50 [2] | SMILES
1 | 1 to 10 µM | 10 to 100 µM | – | – | – | CN(C(=O)c1ccc(CCn2ccc3ncnc-3c2)cc1)C1CCCCC1 [5-[2-[4-(N-methyl-N-cyclohexylcarboxamido)phenyl]ethyl]imidazo[4,5-c]pyridine]
2 | 1 to 10 µM | 50 to 100 µM | – | – | – | CC(C)N(C(=O)c1cccc(Cn2ccc3ncnc-3c2)c1)C1CCCCC1 [5-[3-(N-isopropyl-N-cyclohexylcarboxamido)benzyl]imidazo[4,5-c]pyridine]
3 | 10 to 100 µM | 10 to 100 µM | – | – | – | CN(C(=O)c1cccc(Cn2ccc3ncnc-3c2)c1)C1CCCCC1 [5-[3-(N-methyl-N-cyclohexylcarboxamido)benzyl]imidazo[4,5-c]pyridine]
4 | 1 to 10 µM | 10 to 100 µM | 61.1 µM | – | – | CN(C(=O)c1ccc(CCCn2ccc3ncnc-3c2)cc1)C1CCCCC1 [5-[3-[4-(N-methyl-N-cyclohexylcarboxamido)phenyl]propyl]imidazo[4,5-c]pyridine]
5 | 0.001 to 0.01 µM | 0.01 to 0.1 µM | – | – | – | COc1cc(C(=O)N(C2CCCC2)C2CCCC2)ccc1Cn1ccc2ncnc-2c1 [5-[4-(N,N-dicyclopentylcarboxamido)-2-methoxybenzyl]imidazo[4,5-c]pyridine]
6 | 0.1 to 1 µM | 1 to 10 µM | – | – | – | Cc1nc2ccn(Cc3ccc(C(=O)N(C4CCCC4)C4CCCC4)cc3)cc-2n1 [5-[4-(N,N-dicyclopentylcarboxamido)benzyl]-2-methylimidazo[4,5-c]pyridine]
7 | 0.01 to 0.1 µM | 0.01 to 0.1 µM | 0.188 µM | – | – | Cc1c2ncnc-2ccn1Cc1ccc(C(=O)N(C2CCCC2)C2CCCC2)cc1 [5-[4-(N,N-dicyclopentylcarboxamido)benzyl]-4-methylimidazo[4,5-c]pyridine]
8 | 0.001 to 0.01 µM | 0.05 to 0.1 µM | 0.31 µM | – | – | O=C(c1ccc(Cn2ccc3ncnc-3c2)cc1)N(C1CCCC1)C1CCCC1 [5-[4-(N,N-dicyclopentylcarboxamido)benzyl]imidazo[4,5-c]pyridine]
9 | – | 1 to 10 µM | 7.65 µM | – | – | CC(C)N(C(=O)c1ccc(Cn2ccc3ncnc-3c2)cc1)C(C)C [5-[4-(N,N-diisopropylcarboxamido)benzyl]imidazo[4,5-c]pyridine]
10 | 0.1 to 1 µM | 1 to 10 µM | – | – | – | CN(C(=O)c1ccc(Cn2ccc3ncnc-3c2)c(F)c1)C1CCCCC1 [5-[4-(N,methyl-N-cyclohexylcarboxamido)-2-fluorobenzyl]imidazo[4,5-c]pyridine]
11 | – | – | 22.3 µM | 1 µM | 10 µM | CC(C)(C)CC(C)(C)NC(=O)c1ccc(Cn2ccc3ncnc-3c2)cc1 [5-[4-(N-2(2,4,4-trimethyl)pentylcarboxamide)benzyl]imidazo[4,5-c]pyridine]
12 | – | – | 13.2 µM | 1 µM | – | CN(C(=O)c1ccc(Cn2ccc3ncnc-3c2)cc1)C1CCC2CCCCC2C1 (centres unmarked) [5-[4-(N-2-decalyl-N-methylcarboxamido)benzyl]imidazo[4,5-c]pyridine]
13 | 0.001 to 0.01 µM | 0.01 to 0.1 µM | 0.074 µM | – | – | CC1CCCC(N(C(=O)c2ccc(Cn3ccc4ncnc-4c3)cc2)C2CCCC2)C1 (centres unmarked) [5-[4-(N-3-methylcyclohexyl-N-cyclopentylcarboxamido)benzyl]imidazo[4,5-c]pyridine]
14 | 0.01 to 0.1 µM | 0.1 to 1 µM | – | – | – | CCC(CC)N(C(=O)c1ccc(Cn2ccc3ncnc-3c2)cc1)C1CCCCC1 [5-[4-(N-3-pentyl-N-cyclohexylcarboxamido)benzyl]imidazo[4,5-c]pyridine]
15 | 0.01 to 0.1 µM | 0.1 to 1 µM | 0.75 µM | – | – | CC1CCC(N(C(=O)c2ccc(Cn3ccc4ncnc-4c3)cc2)C2CCCC2)CC1 (centres unmarked) [5-[4-(N-4-methylcyclohexyl-N-cyclopentylcarboxamido)benzyl]imidazo[4,5-c]pyridine]
16 | 0.001 to 0.01 µM | 0.01 to 0.1 µM | 0.0199 µM | – | – | O=C(c1ccc(Cn2ccc3ncnc-3c2)cc1)N(C1CCCCC1)C1CCC1 [5-[4-(N-cyclobutyl-N-cyclohexylcarboxamido)benzyl]imidazo[4,5-c]pyridine]
17 | 0.1 to 1 µM | – | 19.3 µM | – | 10 µM | O=C(NC1CCCCC1)c1ccc(Cn2ccc3ncnc-3c2)cc1 [5-[4-(N-cyclohexylcarboxamido)benzyl]imidazo[4,5-c]pyridine]
18 | 0.001 to 0.01 µM | 0.01 to 0.1 µM | 0.0755 µM | – | – | O=C(c1ccc(Cn2ccc3ncnc-3c2)c(F)c1)N(C1CCCCC1)C1CCCC1 [5-[4-(N-cyclopentyl-N-cyclohexylcarboxamido)-2-fluorobenzyl]imidazo[4,5-c]pyridine]
19 | 0.001 to 0.01 µM | 0.01 to 0.1 µM | 0.32 µM | – | – | O=C(c1ccc(Cn2ccc3ncnc-3c2)cc1)N(C1CCCCC1)C1CCCC1 [5-[4-(N-cyclopentyl-N-cyclohexylcarboxamido)benzyl]imidazo[4,5-c]pyridine]

Row | IC50 ([1]; 1 min) | IC50 ([2]; 1 min) | IC50 [3] | IC50 [1] | IC50 [2] | SMILES
20 | 0.1 to 1 µM | – | 3.68 µM | – | – | O=C(c1ccc(Cn2ccc3ncnc-3c2)cc1)N(C1CCCCC1)C1CC1 [5-[4-(N-cyclopropyl-N-cyclohexylcarboxamido)benzyl]imidazo[4,5-c]pyridine]
21 | – | – | 5.2 µM | 0.1 to 1 µM | 1 to 10 µM | CCN(C(=O)c1ccc(Cn2ccc3ncnc-3c2)cc1)C1CCCCC1 [5-[4-(N-ethyl-N-cyclohexylcarboxamido)carboxamido)benzyl]imidazo[4,5-c]pyridine]
22 | – | – | – | 0.1 µM | 1 µM | CC(C)CN(C(=O)c1ccc(Cn2ccc3ncnc-3c2)cc1)C1CCCCC1 [5-[4-(N-isobutyl-N-cyclohexylcarboxamido)benzyl]imidazo[4,5-c]pyridine]
23 | 0.01 to 0.1 µM | 0.01 to 0.1 µM | – | – | – | CC(C)N(C(=O)c1ccc(Cn2ccc3ncnc-3c2)c(F)c1)C1CCCCC1 [5-[4-(N-isopropyl-N-cyclohexylcarboxamido)-2-fluorobenzyl]imidazo[4,5-c]pyridine]
24 | 0.1 to 1 µM | 1 to 10 µM | – | – | – | COc1cc(C(=O)N(C)C2CCCCC2)ccc1Cn1ccc2ncnc-2c1 [5-[4-(N-methyl-N-cyclohexylcarboxamido)-2-methoxybenzyl]imidazo[4,5-c]pyridine]
25 | – | 1 to 10 µM | 15.2 µM | 0.72 µM | – | CN(C(=O)c1ccc(Cn2ccc3ncnc-3c2)cc1)C1CCCCC1 [5-[4-(N-methyl-N-cyclohexylcarboxamido)benzyl]imidazo[4,5-c]pyridine]
26 | 0.1 to 1 µM | 1 to 10 µM | 9.71 µM | – | – | CCCCCCCCCCNC(=O)c1ccc(Cn2ccc3ncnc-3c2)cc1 [5-[4-(N-n-decylcarboxamido)benzyl]imidazo[4,5-c]pyridine]
27 | – | 0.1 to 1 µM | 11.9 µM | – | – | CCCCCCCCCCCCNC(=O)c1ccc(Cn2ccc3ncnc-3c2)cc1 [5-[4-(N-n-dodecylcarboxamido)benzyl]imidazo[4,5-c]pyridine]
28 | 0.1 to 1 µM | 1 to 10 µM | 11 µM | – | – | CCCCCCCCNC(=O)c1ccc(Cn2ccc3ncnc-3c2)cc1 [5-[4-(N-n-octylcarboxamido)benzyl]imidazo[4,5-c]pyridine]
29 | 0.1 to 1 µM | – | 2.35 µM | – | 1 µM | O=C(c1ccc(Cn2ccc3ncnc-3c2)cc1)N(c1ccccc1)C1CCCC1 [5-[4-(N-phenyl-N-cyclopentylcarboxamido)benzyl]imidazo[4,5-c]pyridine]
30 | 0.001 to 0.01 µM | 0.05 to 0.1 µM | – | – | – | CCC(C)N(C(=O)c1ccc(Cn2ccc3ncnc-3c2)cc1)C1CCCCC1 (centres unmarked) [5-[4-(N-sec.butyl-N-cyclohexylcarboxamido)benzyl]imidazo[4,5-c]pyridine]
31 | 0.001 to 0.01 µM | 0.01 to 0.1 µM | – | – | – | CC(C)(C)N(C(=O)c1ccc(Cn2ccc3ncnc-3c2)cc1)C1CCCCC1 [5-[4-(N-tert.butyl-N-cyclohexylcarboxamido)benzyl]imidazo[4,5-c]pyridine]
32 | 0.001 to 0.01 µM | – | – | – | 0.01 µM | COc1cc(C(=O)N(C2CCCCC2)C2CCCC2)ccc1Cn1ccc2ncnc-2c1 [5-[4{-(N-cyclopentyl,N-cyclohexyl)carboxamido}-2-methoxybenzyl]imidazo[4,5-c]-pyridine]
33 | – | 0.01 to 0.1 µM | 0.0665 µM | 0.01 µM | – | COc1cc(C(=O)N(C(C)C)C2CCCCC2)ccc1Cn1ccc2ncnc-2c1 [5-[4{-(N-isopropyl,N-cyclohexyl)carboxamido}-2-methoxybenzyl]imidazo[4,5-c]pyridine]
34 | – | 0.01 to 0.1 µM | 0.17 µM | 0.01 µM | – | CC(C)N(C(=O)c1ccc(Cn2ccc3ncnc-3c2)cc1)C1CCCCC1 [5-[4{-(N-isopropylyl,N-cyclohexyl)carboxamido}benzyl]imidazo[4.5-c]pyridine]
35 | – | 0.1 to 1 µM | 1.06 µM | 0.01 µM | – | O=C(c1ccc(Cn2ccc3ncnc-3c2)cc1)N(C1CCCCC1)C1CCCCC1 [5-[(4-(N,N-dicyclohexylcarboxamido)benzyl]imidazo[4,5-c]pyridine]
36 | – | – | 0.018 µM | 0.002 µM | – | Cc1cc(C(=O)N(C2CCCCC2)C2CCCC2)ccc1Cn1ccc2ncnc-2c1 [N-cyclohexyl-N-cyclopentyl-4-(5H)-imidazo[4,5-c]pyridin-5-ylmethyl)-3-methylbenzamide]
37 | – | – | 0.001 µM | 0.001 µM | – | COc1cc(Cn2ccc3ncnc-3c2)ccc1C(=O)N(C1CCCC1)C1CC(C)CC(C)C1 (centres unmarked) [N-cyclopentyl-N-(3,5-dimethylcyclohexyl)-4-(5H-imidazo[4,5-c]pyridin-5-ylmethyl)-2-methoxybenzamide]
